According to patent publication US12447135B2 (University of South Florida, priority 2021, dated 2025):
Entries after “also recorded” stand apart in the source; their conditions may differ.

Tests used:
[1] = test system: C. elegans CL2355 and CL2122; assay: Chemotaxis activity in C. elegans; assay type: in vivo; settings: 10 μg/ml
Method: Then the worms were washed twice with S-Basal media and transferred to an NGM plate without E. coli OP50. These plates were divided into four equal sectors, with 1 μl of 0.1% benzaldehyde as an odorant and 1 μl of 1 M sodium azide as an anesthetic to arrest the worms upon reaching the quadrant were added to the original spot. On the opposite side of the attractant, a 1 μl drop of sodium azide and 1 μl of control odorant (100% ethanol) were added onto the NGM agar plate. Around 40-45 worms were placed in the center of each plate, incubated at room temperature for 1 h, and transferred to 4° C. overnight. The chemotaxis index (CI) was scored using the following formula: (number of worms at the attractant location […])/total number of worms on the plate ([…] et al., 2013).

[2] = test system: SK-N-SH cells; assay: Lysosome activity in SK-N-SH cells; assay type: cell-based, human; settings: 10 μM, vs controls
Method: Bafilomycin was used as an inhibitor of cellular autophagy/lysosomal activity. The lysosomal activity was assayed using the Enz@ lysozyme assay kit (E-22013, Molecular Probes) and the fluorescence was measured in a fluorescence microplate reader using excitation and emission wavelengths of 494 nm and 518 nm, respectively (Biotek Instruments, VT, USA).

[3] = test system: proteasome; assay: Proteasome activity assay in C. elegans; assay type: in vivo; settings: C. elegans (CL2006)
Method: (§1) The CL2006 strain, SK-N-SH cells, and brain tissues were sonicated in a lysis buffer (150 mM NaCl, 50 mM HEPES, 2 mM DTT, 20 mM NaF, 5 mM EDTA, 2.5 mM sodium pyrophosphate, 1 mM sodium orthovanadate, and 1 mM α-glycerophosphoric acid) and then centrifuged at 15,000 g at 4° C. for 15 min. Total protein was assayed using BCA kit and 20 μg protein was mixed with 140 μM suc-leu-leu-val-tyr-7-amino-4-methylcou-marin (AMC) in a proteasome activity assay buffer (150 mM NaCl, 50 mM HEPES [pH 7.4], 5 mM ATP, and 5 mM EDTA), and then the fluorescence (excitation 380 nm and emission 460 nm) was measured every 10 min over 3 h using a microplate reader. The assay was performed with and without the proteasome inhibitor MG132 (10 μM).

[4] = test system: proteasome; assay: Proteasome activity assay in brain of APP/PS1 mice; assay type: in vivo; settings: 80 mg/kg daily oral gavage, 3 months
Method: Brains were collected and immediately homogenized in proteasome lysis buffer and proteasome activity was measured as described below. All the animal procedures and experiments were approved by the institutional animal care and use committee (IACUC) of the Wake Forest School of Medicine and the University of South Florida.
as §1

[5] = test system: C. elegans overexpressing human Aβ; assay: Aβ accumulation in C. elegans (thioflavin S staining, western blot); assay type: in vivo; settings: CL2006 worms overexpressing human Aβ, vs DMSO controls
Method: To determine the FFAR2 signal activating property of selected compounds, SK-N-SH cells were treated with 10 μM of shortlisted compounds for 30 min at 37° C. and harvested for total protein extraction. Cells were harvested after 30 min of incubation because ERK1/2 phosphorylation upon FFAR2 activation is a quick event (Jiao et al., 2002; Bhattacharjee et al., 2010). Total protein from the cells was extracted using a lysis buffer [consisting of 10 mmol/L Tris (pH 7.6), 150 mmol/L NaCl, 10 mmol/L Sodium orthovanadate, 10 mmol/L Sodium Pyrophosphate, 100 mmol/L Sodium fluoride, 1 mmol/L EDTA, 1 mmol/L EGTA, 1% Triton X-100, 0.5% NP-40 and a cocktail of protease inhibitors (Roche); Yadav et al., 2011, 2017; Ahmadi et al., 2019, 2020a]. After sonication, cell extracts were centrifuged at 8,000×g for 10 min at 4° C., and the supernatant was separated in a fresh tube. The total protein concentration of the supernatant was measured using a BCA protein assay kit. […] Band densities were also quantified using NIH ImageJ software. β-actin was used as an internal control.
Then, the worm bodies were permeabilized in 1% Triton X-100, 125 mM Tris (pH 7.4), and 5% fresh β-mercaptoethanol. […] A total of 20 worms were counted from each group.

[6] = test system: C. elegans; assay: Lifespan assay in C. elegans; assay type: in vivo; settings: 10 μM
Method: C. elegans was used as a model for determining the impact of selected compounds on aging and AD-like phenotypes. The wild-type (N2) and CL2122 (dvls15 [9pPD30.38) unc-54(vector)+(pCL26)mtl-2::GFP]) were propagated at 20° C. AD transgenic worms model CL2006 (dvls [pCL12(unc-54/human abeta peptide 1-42 minigene)+pRF4), CL4176 (dvls27[myo-3p::A-Beta (1-42)::let-851 3tUTR)+rol-6 (su1006] and CL2355 (dvls 50 [pCL45 9snb-1::Abeta 1-42::3t UTR 9 log)+mtl-2::GFP]) were maintained at 16° C. All strains were cultured on solid nematode growth medium (NGM) consisting of 3 g/L NaCl, 2.5 g/L peptone, 5 mg/L cholesterol, 1 mM CaCl2), 1 mM MgSO4, 25 mM KH2PO4, and 17 g/L agar and seeded with OP50 (Escherichia coli strain) as a food supply. The worms were allowed to grow up to the adult stage, and egg carrying worms were used to isolate age-synchronized eggs using the bleaching method (Porta-de-la-Riva et al., 2012). […] (N2 and CL2122) or 16° C. (CL2006, CL4176, and CL2355). All of the strains used were acquired from the University of Minnesota-Caenorhabditis Genetics Center, which is funded by the NIH Office of Research Infrastructure Programs (P40 OD010440).
To determine the impact of selected compounds on age related decline in brain health, the lifespan of the worms was first measured. The L1 worms were cultured in 96-well plates on S-complete media containing E. coli OP50 and antibiotics (about 10-15 animals per well). […] The 0.6 mM Fluorodeoxyuridine (FUDR; 30 μl) was added to each well after 3 days and animals were monitored every other day for viability. The CL4176 and CL2006 worms were grown at 16° C. and N2 worms were grown at 20° C.

SMILES: CC12CCC(C1)C(C)(C)C2O (stereo not shown) [Fenchol]
- memory behavior / chemotaxis index ([1]; CL2355 worms overexpressing human Aβ): significantly higher; also recorded: preserved
- chemotaxis index ([1]; control CL2122 strain): normal effects
- lysosomal activity [2]: significantly increased
- proteasomal activity [3]: significantly increased
- proteasomal activity ([4]; APP/PS1 mice cortex): significantly increased
- proteasomal activity ([4]; APP/PS1 mice hippocampus): significantly increased
- Aβ accumulation [5]: significantly reduced
- survival/lifespan ([6]; CL2006 worms overexpressing human Aβ): significantly increased
- survival/lifespan ([6]; CL4176 worms overexpressing human Aβ): significantly increased
- lifespan ([6]; wild-type N2 worms): no significant impacts
